In US20220193013A1, “Pharmaceutical Composition for Treatment or Prevention of Multiple Inflammatory Disorders” (priority 2020, published 2022):
Where two headings read alike, the source gives them in different places.

How the values were obtained:
[1] = tested on: microbial populations in fecal samples; assay: microbiome study in NASH mouse model (AMLN diet), 4 weeks; format: in vivo
Description: There were changes in the microbiome in a mice model using a high-fat diet after 4 weeks of treatment with and without administering DA orally. The high fat diet itself induced extensive changes in the microbial populations in all groups. Importantly though, there was a pronounced difference between the DA treatment group and the control group at week 4.
The effect of a small molecule oral TAS2R agonist (DA) was investigated on microbial populations in a nonalcoholic steatohepatitis (NASH) mouse model. Two groups of 4-week-old male C57BL/6 mice (20/group) were fed Amylin Liver NASH (AMLN) diet and received daily doses of ARD-101 (30 mg/mL in water) or vehicle (water) via intragastric gavage. DNA was isolated from fecal samples collected at week 0 and 4, and microbial ecology was evaluated using bTEFAP (bacterial tag-encoded FLX amplicon pyrosequencing). Operational taxonomic units were classified using BLAST against a curated NCBI database. Diversity within specific ecosystems and microbial community structures was analyzed with Qiime 2. Differences were determined by repeated measures ANOVA and post hoc pairwise comparisons using Tukey's test. Taxonomic classification data were evaluated with a dual hierarchal dendrogram.

[2] = tested on: acute lung injury plus hyperthermia, CD-1 mice; format: in vivo; settings: for tolerability: mouse, in vivo
Experimental: This example provides results of a second modified acute lung injury plus hyperthermia study to evaluate the effect of denatonium acetate. The same procedure was used as in Example 7. Starting three days before the induction of lung injury, groups of six CD-1 mice each were treated prophylactically with vehicle or 92.4 mg/kg denatonium acetate (DA) (administered by twice-daily (BID) oral gavage (PO)) or with 3 mg/kg DA (administered by once-daily (QD) intraperitoneal (IP) injection). On Day 0, lung injury was induced by intratracheal instillation with 50 μL of 1 mg/mL bacterial lipopolysaccharide (LPS), and hyperthermia was induced by placing the animals in a 39° C. incubator. On Day 1 (i.e., 24 hours after induction), animals were euthanized and bronchoalveolar lavage fluid (BALF) was collected. The BALF specimens were assessed for cytokine concentrations (using a multiplex bead-based assay), and protein levels, and neutrophil counts (by fluorescence-activated cell sorting (FACS)). Additionally, lungs were collected, fixed, stained with Masson's trichrome, and assessed histologically. Three days of repeat PO dosing with 92.4 mg/kg DA (BID) or IP dosing with 3 mg/kg DA (QD) was well-tolerated in female CD-1 mice. […] This inference is consistent with the observation that deaths were seen both with vehicle and test article dosing. No other adverse clinical observations were noted during 3 days of test article administration. […] IL-13, MIP-1β, MCSF, and MIG. […] Thus, BID PO treatment with 92.4 mg/kg DA or QD IP injection with 3 mg/kg DA provided significant attenuation of the accumulation of multiple cytokines in the lungs of this mouse model of acute lung injury, along with nominal activity in counteracting neutrophil infiltration and lung damage in these animals.

[3] = 4-week DA treatment, genetic potential of microbiome
[4] = treatment at 4 weeks versus baseline and control
[5] = week 4, DA group versus vehicle group, AMLN diet
[6] = IP 3 mg/kg QD, compared to vehicle
[7] = oral 92.4 mg/kg BID, compared to vehicle

## CC(=O)[O-].CC[N+](CC)(CC(=O)Nc1c(C)cccc1C)Cc1ccccc1 [DA, denatonium acetate]
[1]; [3]
  arginine and ornithine metabolism: significantly decreased signaling
  pathways for biosynthesis of unsaturated fatty acids: significant enrichment
  pathways for glycolysis and gluconeogenesis: significant enrichment
  pathways for lysine degradation: significant enrichment
  pathways for metabolism of arachidonic acid: significant enrichment
  pathways for metabolism of cofactors and vitamins: significant enrichment
  phosphatidylinositol signaling: significant enrichment
[1]; AMLN diet, DA treatment
  SCFAs in feces: mitigated the diet-induced decrease
[1]; DA versus vehicle group at week 4, p<0.05
  diversity within ecosystems and microbial communities: significantly less diversity
[1]; [4]
  genus: Lachnoclostridium, Barnesiella, Clostridium, Oscillospira, Dorea, candidatus soleaferrea, Dehalobacterium, Oscillibacter, Flavonifractor: Significantly Decreased
  genus: Parabacteroides, Escherichia, Erysipelatoclostridium, Peptoclostridium, Sutterella, Shigella, Brenneria: Significantly Increased
[1]; [5]
  Cyanobacteria (phylum level): significant increases
  Deferribacteres (phylum level): significant decreases
  Firmicutes (phylum level): significant decreases
  Proteobacteria (phylum level): significant increases
  Spirochetes (phylum level): significant decreases
  Verrucomicrobia (phylum level): significant increases
[1]; week 4, not marked significant
  Bacteroidetes (phylum level): decreased
[2]; IP 3 mg/kg QD
  BALF neutrophil counts (by FACS assay): nominal decreases
  BALF protein concentrations: nominal (but nonsignificant) changes
  severity of lung pathology (by histological scoring): nominal decreases in the severity
[2]; [6]
  BALF concentration of G-CSF: significant decreases
  BALF concentration of IL2: significant decreases
  BALF concentration of IL-3: significant decreases
  BALF concentration of IL-4: significant decreases
  BALF concentration of IL-13: significant decreases
  BALF concentration of IP-10: significant decreases
  BALF concentration of M-CSF: significant decreases
  BALF concentration of MCP-1: significant decreases
  BALF concentration of MIG: significant decreases
  BALF concentration of eotaxin: significant decreases
[2]; ip, 3 mg/kg
  tolerability: well-tolerated
[2]; po, 92.4 mg/kg
  tolerability: well-tolerated
[2]; oral 92.4 mg/kg BID
  BALF neutrophil counts (by FACS assay): nominal decreases
  BALF protein concentrations: nominal (but nonsignificant) changes
  severity of lung pathology (by histological scoring): nominal decreases in the severity
[2]; [7]
  BALF concentration of IL-2: significant decreases
  BALF concentration of IL-3: significant decreases
  BALF concentration of IL-10: significant decreases
  BALF concentration of IL-13: significant decreases
  BALF concentration of MCSF: significant decreases
  BALF concentration of MIG: significant decreases
  BALF concentration of MIP-1β: significant decreases
